Test results published in patent US20100317731A1, “Hyperhidrosis treatment” (priority 2009, published 2010).

Experiments:
Assay type in all cases: in vivo, human
[1] = tested on: patients who complained of excessive sweating; test: Open label study of 26 patients with excessive sweating treated with topiramate; conditions: 26 patients (18 females, 8 males), total daily dose 25 mg to 100 mg, subjective assessment and report, all on one or more antidepressant
Description: In an open label study of 26 patients (18 females and 8 males) who complained of excessive sweating were treated with topiramate on the basis of off label prescribing. The patients were informed of the off-label nature of the treatment and they were counseled about the potential side effects of topiramate. The total daily dose ranged from 25 mg to 100 mg. Over 95% of patients experienced a significant response based on their subjective assessment and report. Patients were all adults with an age range from 25 yrs to 79 yrs. All the patients were on one or more antidepressant including various SSRI's with or without Bupropion. However, several of the patients had experienced excessive sweating for other reasons and before the use of antidepressants, even though adding the antidepressant exacerbated their underlying hyperhidrosis. Some of the underlying causes included perimenopause/menopause as well as primary or idiopathic hyperhidrosis. some had identified vulnerability from before, only made worse by antidepressants.

[2] = tested on: patients with excessive sweating (drug-induced hyperhidrosis); test: Clinical examples: single patient case reports of excessive sweating treated with topiramate
[3] = tested on: patients with excessive sweating; test: Inventor's data and observations in patients with excessive sweating
Description: Based on data and observations that the inventor has, they have found topiramate (Topamax®) to have the following, previously undiscovered, beneficial pharmacological effects for patients with excessive sweating: The patient population in which the inventor has seen these benefits included both men and women ranging in age from 25 to 79 years. […] Optionally, the topiramate can be taken as a low dose on an as-needed basis to treat these sweating episodes. […] The inventor became convinced that topiramate was effective in the treatment of excessive sweating. They observed the improvement in patients whose sweating was induced by various antidepressant medications. Some experienced such sweating severity that they had to change their bedding at night as well as their night clothes. Others found it too embarrassing in the day time to the extent that it interfered with their work and social life; and some became reluctant to take their required antidepressant.

[4] = men and women aged 25 to 79 years
[5] = patients with excessive sweating

## CC1(C)O[C@@H]2[C@@H](CO[C@@]3(COS(N)(=O)=O)OC(C)(C)O[C@@H]23)O1 [topiramate]
[1]
  patients who experienced a significant response: Over 95%
[2]; Example 1, a person, Cymbalta 60 mg daily, retrial of topiramate 25 mg twice daily
  excessive sweating, patient report: much better
[2]; Example 1, a person, Cymbalta 80 mg daily, topiramate raised from 50 mg daily to 50 mg twice daily
  excessive sweating, patient report: after initial improvement with the topiramate increase, the excessive sweating has recurred
[2]; Example 2, a person, Cymbalta and Wellbutrin XL, topiramate 25 mg daily
  excessive sweating, patient report: much better
[2]; Example 2, a person, topiramate 25 mg per day
  adverse effects, patient report: no adverse effects
[2]; Example 3, a person, Effexor XR 300 mg daily, topiramate 50 mg daily
  excessive sweating, patient report: much improvement
[2]; Example 3, a person, topiramate 50 mg daily
  adverse effects, patient report: no adverse effects
[2]; Example 4, a person, Zoloft, topiramate 25 mg twice daily
  excessive sweating, patient report: improved
[2]; Example 4, a person, Zoloft, topiramate as needed
  effectiveness when taken on an as needed basis: effective
[2]; Example 4, a person, topiramate
  adverse effects, patient report: no adverse effects
[2]; Example 5, a person, Wellbutrin XL, Cymbalta, Pristiq, topiramate 50 mg daily
  excessive sweating, patient report: suboptimal improvement
[2]; Example 5, a person, topiramate 50 mg twice daily, improvement reported for five months thereafter
  excessive sweating, patient report: satisfactory
[2]; Example 6, a person, Wellbutrin XL and Cymbalta, topiramate 25 mg daily, over eighteen months
  excessive perspiration, patient report: satisfactory resolution
[2]; Example 6, a person, topiramate 25 mg daily, over eighteen months
  adverse effects, patient report: without any adverse effects
[2]; Example 7, a person, Aricept and Cymbalta 30 mg, topiramate 25 mg then 50 mg at bedtime
  excessive sweating, patient report: complete resolution
[2]; Example 7, a person, topiramate 25 mg then 50 mg at bedtime
  adverse effects, patient report: no adverse effects
[3]; doses as low as 12.5 mg per day in an adult
  effectiveness against drug-induced hyperhidrosis at low dose: highly effective
[3]; low dosage
  incidence of side effects at low dosage: without significant incidence of those side effects
[3]; [4]
  benefit in the patient population: all benefited
  side effects in the patient population: minimal side effects
[3]; [5]
  effect on excessive sweating caused by antidepressants and similar medications: Substantial improvement
  effect on excessive sweating caused by primary or idiopathic hyperhidrosis: Substantial improvement
  effect on excessive sweating from other miscellaneous causes of hyperhidrosis: Substantial improvement
  effect on excessive sweating, idiopathic or drug-induced: Substantial improvement
  effectiveness when used on an as needed basis: effective
